Laboratory results taken from the supplement of paper PMC10307832.

Legend:
Assay in all cases: relative viability (nuclei count vs DMSO), 5 days (fraction); higher = more cells survive
NCI-H2347 = system: NCI-H2347
Procedure, shortened: (§1)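 Lung cancer cell lines were pin-tool dosed in 1536-well plates on the day after seeding, with either a lone drug or a fixed anchor-drug dose plus five library-drug doses (not always all listed) in √10 steps. Nuclei were counted on 4× images after 5 days. Relative viability is the ratio of treated-well to vehicle-well nuclei counts, with each value a median of duplicate plates.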

NCI-H647 = system: NCI-H647
Procedure, shortened: as §1

NCI-H2126 = system: NCI-H2126
Procedure, shortened: as §1

NCI-H1915 = system: NCI-H1915
Procedure, shortened: as §1

201T = system: 201T
Procedure, shortened: as §1

ChaGo-K-1 = system: ChaGo-K-1
Procedure, shortened: as §1

NCI-H322M = system: NCI-H322M
Procedure, shortened: as §1

RERF-LC-KJ = system: RERF-LC-KJ
Procedure, shortened: as §1

EPLC-272H = system: EPLC-272H
Procedure, shortened: as §1

NCI-H1666 = system: NCI-H1666
Procedure, shortened: as §1

PC-14 = system: PC-14
Procedure, shortened: as §1

LCLC-97TM1 = system: LCLC-97TM1
Procedure, shortened: as §1

HCC-827 = system: HCC-827
Procedure, shortened: as §1

NCI-H23 = system: NCI-H23
Procedure, shortened: as §1

HCC-78 = system: HCC-78
Procedure, shortened: as §1

COR-L 105 = system: COR-L 105
Procedure, shortened: as §1

NCI-H520 = system: NCI-H520
Procedure, shortened: as §1

NCI-H522 = system: NCI-H522
Procedure, shortened: as §1

NCI-H2405 = system: NCI-H2405
Procedure, shortened: as §1

NCI-H2087 = system: NCI-H2087
Procedure, shortened: as §1

LC-2-ad = system: LC-2-ad
Procedure, shortened: as §1

H3255 = system: H3255
Procedure, shortened: as §1

NCI-H661 = system: NCI-H661
Procedure, shortened: as §1

NCI-H650 = system: NCI-H650
Procedure, shortened: as §1

## Clc1ccc(Nc2nnc(Cc3ccncc3)c3ccccc23)cc1 [Vatalanib] + O=C(CCCCCCC(=O)Nc1ccccc1)NO [Vorinostat] (partner 1 µM)
NCI-H2347; first compound 0.04 µM
  relative viability: 0.473
NCI-H2347; first compound 0.1265 µM
  relative viability: 0.772
NCI-H2347; first compound 0.4 µM
  relative viability: 0.516
NCI-H2347; first compound 1.265 µM
  relative viability: 0.501
NCI-H2347; first compound 4 µM
  relative viability: 0.586
NCI-H647; first compound 0.04 µM
  relative viability: 0.658
NCI-H647; first compound 0.1265 µM
  relative viability: 0.685
NCI-H647; first compound 0.4 µM
  relative viability: 0.87
NCI-H647; first compound 1.265 µM
  relative viability: 0.641
NCI-H647; first compound 4 µM
  relative viability: 0.632
NCI-H2126; first compound 0.04 µM
  relative viability: 0.704
NCI-H2126; first compound 0.1265 µM
  relative viability: 0.835
NCI-H2126; first compound 0.4 µM
  relative viability: 0.837
NCI-H2126; first compound 1.265 µM
  relative viability: 0.766
NCI-H2126; first compound 4 µM
  relative viability: 0.691
NCI-H1915; first compound 0.04 µM
  relative viability: 0.507
NCI-H1915; first compound 0.1265 µM
  relative viability: 0.544
NCI-H1915; first compound 0.4 µM
  relative viability: 0.587
NCI-H1915; first compound 1.265 µM
  relative viability: 0.482
NCI-H1915; first compound 4 µM
  relative viability: 0.518
201T; first compound 0.04 µM
  relative viability: 0.995
201T; first compound 0.1265 µM
  relative viability: 1.01
201T; first compound 0.4 µM
  relative viability: 1.06
201T; first compound 1.265 µM
  relative viability: 1.01
201T; first compound 4 µM
  relative viability: 1.07
ChaGo-K-1; first compound 0.04 µM
  relative viability: 0.787
ChaGo-K-1; first compound 0.1265 µM
  relative viability: 0.758
ChaGo-K-1; first compound 0.4 µM
  relative viability: 0.848
ChaGo-K-1; first compound 1.265 µM
  relative viability: 0.766
ChaGo-K-1; first compound 4 µM
  relative viability: 0.788
NCI-H322M; first compound 0.04 µM
  relative viability: 0.898
NCI-H322M; first compound 0.1265 µM
  relative viability: 0.867
NCI-H322M; first compound 0.4 µM
  relative viability: 0.825
NCI-H322M; first compound 4 µM
  relative viability: 0.899
RERF-LC-KJ; first compound 0.04 µM
  relative viability: 0.714
RERF-LC-KJ; first compound 0.1265 µM
  relative viability: 0.747
RERF-LC-KJ; first compound 0.4 µM
  relative viability: 0.69
RERF-LC-KJ; first compound 1.265 µM
  relative viability: 0.665
RERF-LC-KJ; first compound 4 µM
  relative viability: 0.651
EPLC-272H; first compound 0.04 µM
  relative viability: 0.438
EPLC-272H; first compound 0.1265 µM
  relative viability: 0.702
EPLC-272H; first compound 0.4 µM
  relative viability: 0.499
EPLC-272H; first compound 1.265 µM
  relative viability: 0.617
EPLC-272H; first compound 4 µM
  relative viability: 0.561
NCI-H1666; first compound 0.04 µM
  relative viability: 0.997
NCI-H1666; first compound 0.1265 µM
  relative viability: 1.02
NCI-H1666; first compound 0.4 µM
  relative viability: 1.03
NCI-H1666; first compound 1.265 µM
  relative viability: 1.04
NCI-H1666; first compound 4 µM
  relative viability: 0.908
PC-14; first compound 0.04 µM
  relative viability: 0.746
PC-14; first compound 0.1265 µM
  relative viability: 0.721
PC-14; first compound 0.4 µM
  relative viability: 0.801
PC-14; first compound 1.265 µM
  relative viability: 0.716
PC-14; first compound 4 µM
  relative viability: 0.62
LCLC-97TM1; first compound 0.04 µM
  relative viability: 0.601
LCLC-97TM1; first compound 0.1265 µM
  relative viability: 0.613
LCLC-97TM1; first compound 0.4 µM
  relative viability: 0.804
LCLC-97TM1; first compound 1.265 µM
  relative viability: 0.65
LCLC-97TM1; first compound 4 µM
  relative viability: 0.649
HCC-827; first compound 0.04 µM
  relative viability: 0.767
HCC-827; first compound 0.1265 µM
  relative viability: 0.953
HCC-827; first compound 1.265 µM
  relative viability: 0.741
HCC-827; first compound 4 µM
  relative viability: 0.86
NCI-H23; first compound 0.04 µM
  relative viability: 0.57
NCI-H23; first compound 0.1265 µM
  relative viability: 0.558
NCI-H23; first compound 0.4 µM
  relative viability: 0.77
NCI-H23; first compound 1.265 µM
  relative viability: 0.495
NCI-H23; first compound 4 µM
  relative viability: 0.546
HCC-78; first compound 0.04 µM
  relative viability: 0.425
HCC-78; first compound 0.1265 µM
  relative viability: 0.478
HCC-78; first compound 0.4 µM
  relative viability: 0.49
HCC-78; first compound 1.265 µM
  relative viability: 0.465
HCC-78; first compound 4 µM
  relative viability: 0.424
COR-L 105; first compound 0.04 µM
  relative viability: 0.846
COR-L 105; first compound 0.1265 µM
  relative viability: 0.806
COR-L 105; first compound 0.4 µM
  relative viability: 0.829
COR-L 105; first compound 1.265 µM
  relative viability: 0.905
COR-L 105; first compound 4 µM
  relative viability: 0.794
NCI-H520; first compound 0.04 µM
  relative viability: 0.621
NCI-H520; first compound 0.1265 µM
  relative viability: 0.642
NCI-H520; first compound 0.4 µM
  relative viability: 0.817
NCI-H520; first compound 1.265 µM
  relative viability: 0.661
NCI-H520; first compound 4 µM
  relative viability: 0.718
NCI-H522; first compound 0.04 µM
  relative viability: 0.634
NCI-H522; first compound 0.1265 µM
  relative viability: 0.898
NCI-H522; first compound 0.4 µM
  relative viability: 1.06
NCI-H522; first compound 1.265 µM
  relative viability: 1
NCI-H522; first compound 4 µM
  relative viability: 0.895
NCI-H2405; first compound 0.04 µM
  relative viability: 1.09
NCI-H2405; first compound 0.1265 µM
  relative viability: 0.938
NCI-H2405; first compound 0.4 µM
  relative viability: 1.06
NCI-H2405; first compound 4 µM
  relative viability: 0.976
NCI-H2087; first compound 0.04 µM
  relative viability: 0.836
NCI-H2087; first compound 0.1265 µM
  relative viability: 0.6
NCI-H2087; first compound 0.4 µM
  relative viability: 0.595
NCI-H2087; first compound 1.265 µM
  relative viability: 0.701
NCI-H2087; first compound 4 µM
  relative viability: 0.533
LC-2-ad; first compound 0.04 µM
  relative viability: 0.695
LC-2-ad; first compound 0.1265 µM
  relative viability: 0.743
LC-2-ad; first compound 0.4 µM
  relative viability: 0.768
LC-2-ad; first compound 1.265 µM
  relative viability: 0.682
LC-2-ad; first compound 4 µM
  relative viability: 0.676
H3255; first compound 0.04 µM
  relative viability: 0.744
H3255; first compound 0.1265 µM
  relative viability: 0.832
H3255; first compound 0.4 µM
  relative viability: 0.714
H3255; first compound 1.265 µM
  relative viability: 0.746
H3255; first compound 4 µM
  relative viability: 0.689
NCI-H661; first compound 0.04 µM
  relative viability: 0.8
NCI-H661; first compound 0.1265 µM
  relative viability: 0.872
NCI-H661; first compound 0.4 µM
  relative viability: 0.778
NCI-H661; first compound 1.265 µM
  relative viability: 0.775
NCI-H661; first compound 4 µM
  relative viability: 0.805
NCI-H650; first compound 0.04 µM
  relative viability: 0.397
NCI-H650; first compound 0.1265 µM
  relative viability: 0.496
NCI-H650; first compound 0.4 µM
  relative viability: 0.453
NCI-H650; first compound 1.265 µM
  relative viability: 0.414
NCI-H650; first compound 4 µM
  relative viability: 0.443
